According to patent US9707305B2, “Formulas for diagnosing and treating hormone-dependent cancers and cancers of the organs responsible for steroid hormone synthesis” (Commissariat à l'énergie atomique et aux énergies …, priority 2011, dated 2017):

Key:
[1] = Biodistribution of the mixture of three free tracers (not formulated as nano-emulsion), comparative; type: in vivo; conditions: FVB female mouse
Experimental: (§1) In the following examples, the radioactivity was counted with the TRiCarb Counter (Ref: Packard, Liquid Scintillation Analyzers; Models 2200CA).
(§2) Fluobeam 700 (Fluoptics) is the apparatus with which the whole of the organs from the biodistribution were analyzed in fluorescence as well as the one with which the biodistribution kinetics of the nano-emulsions were established in vivo. This imaging system allows viewing of the fluorescence in spectral bands from 700 to 850 nm for a 650 nm excitation. The apparatus consists of an electric case containing the laser of class 3B, its power supply and an optical head containing the CCD camera.
As a comparison, a mixture of three tracers ([3H]CHE, [14C]CO and DiD) (not formulated as a nano-emulsion) was injected in order to observe the distribution of the tracers in the absence of droplets being used as a distribution carrier.

[2] = Biodistribution of the nano-emulsion of Example 1.1 (radioactivity and fluorescence per organ); type: in vivo
Experimental: as §1, §2
The nano-emulsions of Example 1 were injected into FVB female and male mice. As a comparison, a mixture of three tracers ([3H]CHE, [14C]CO and DiD) (not formulated as a nano-emulsion) was injected in order to observe the distribution of the tracers in the absence of droplets being used as a distribution carrier.
Tables 6 to 14 provide the biodistribution results of each tracer ([3H]CHE, [14C]CO and DiD) expressed as a percentage of the dose injected per gram of tissue (or [3H]CHE and [14C]CO) or as fluorescence intensity (for DiD) depending on the organ of the mouse, 15 minutes (Table 6), 2 hours (Table 7), 4 hours (Table 8), 6 hours (Table 9), 16 hours (Table 10), 24 hours (Table 11), 72 hours (Table 12), 120 hours (Table 13) and 168 hours (Table 14), after injection into an FVB female mouse of the nano-emulsion of Example 1.1. (nano-emulsion according to the invention comprising the three tracers ([3H]CHE, [14C]CO and DiD).

[3] = 2 h after injection of free tracers (not nano-emulsion)
[4] = 6 h after injection of free tracers (not nano-emulsion)
[5] = 16 h after injection of free tracers (not nano-emulsion)
[6] = 24 h after injection of free tracers (not nano-emulsion)
[7] = 15 min after injection of nano-emulsion of Example 1.1, FVB female mouse
[8] = 2 h after injection of nano-emulsion of Example 1.1, FVB female mouse

CCCCCCCC/C=C\CCCCCCC[14C](=O)O[C@H]1CC[C@@]2(C)C(=CC[C@H]3[C@@H]4CC[C@H]([C@H](C)CCCC(C)C)[C@@]4(C)CC[C@@H]32)C1 [[14C]CO, cholesteryl oleate]
biodistribution, Adrenal glands (MEAN) [1, 3]: 3.25 % of injected dose per gram of
biodistribution, Brain (MEAN) [1, 3]: 0.23 % of injected dose per gram of
biodistribution, Fat (MEAN) [1, 3]: 0.69 % of injected dose per gram of
biodistribution, Heart (MEAN) [1, 3]: 0.59 % of injected dose per gram of
biodistribution, Intestine (MEAN) [1, 3]: 0.76 % of injected dose per gram of
biodistribution, Kidney (MEAN) [1, 3]: 0.89 % of injected dose per gram of
biodistribution, Liver (MEAN) [1, 3]: 4.79 % of injected dose per gram of
biodistribution, Lung (MEAN) [1, 3]: 72.86 % of injected dose per gram of
biodistribution, Muscle (MEAN) [1, 3]: 0.38 % of injected dose per gram of
biodistribution, Ovary (MEAN) [1, 3]: 1.57 % of injected dose per gram of
biodistribution, Pancreas (MEAN) [1, 3]: 0.47 % of injected dose per gram of
biodistribution, Salivary gland (MEAN) [1, 3]: 0.74 % of injected dose per gram of
biodistribution, Spleen (MEAN) [1, 3]: 3.65 % of injected dose per gram of
biodistribution, Uterus (MEAN) [1, 3]: 0.49 % of injected dose per gram of
biodistribution, Adrenal glands (MEAN) [1, 4]: 3.56 % of injected dose per gram of
biodistribution, Brain (MEAN) [1, 4]: 0.26 % of injected dose per gram of
biodistribution, Fat (MEAN) [1, 4]: 1.05 % of injected dose per gram of
biodistribution, Heart (MEAN) [1, 4]: 1.21 % of injected dose per gram of
biodistribution, Intestine (MEAN) [1, 4]: 1.21 % of injected dose per gram of
biodistribution, Kidney (MEAN) [1, 4]: 1.36 % of injected dose per gram of
biodistribution, Liver (MEAN) [1, 4]: 5.53 % of injected dose per gram of
biodistribution, Lung (MEAN) [1, 4]: 142.66 % of injected dose per gram of
biodistribution, Muscle (MEAN) [1, 4]: 0.53 % of injected dose per gram of
biodistribution, Ovary (MEAN) [1, 4]: 2.12 % of injected dose per gram of
biodistribution, Pancreas (MEAN) [1, 4]: 0.76 % of injected dose per gram of
biodistribution, Salivary gland (MEAN) [1, 4]: 1.15 % of injected dose per gram of
biodistribution, Spleen (MEAN) [1, 4]: 3.53 % of injected dose per gram of
biodistribution, Uterus (MEAN) [1, 4]: 0.46 % of injected dose per gram of
biodistribution, Adrenal gland (MEAN) [1, 5]: 4.24 % of injected dose per gram of
biodistribution, Brain (MEAN) [1, 5]: 0.30 % of injected dose per gram of
biodistribution, Fat (MEAN) [1, 5]: 1.39 % of injected dose per gram of
biodistribution, Heart (MEAN) [1, 5]: 1.87 % of injected dose per gram of
biodistribution, Intestine (MEAN) [1, 5]: 1.09 % of injected dose per gram of
biodistribution, Kidney (MEAN) [1, 5]: 1.82 % of injected dose per gram of
biodistribution, Liver (MEAN) [1, 5]: 11.86 % of injected dose per gram of
biodistribution, Lung (MEAN) [1, 5]: 261.87 % of injected dose per gram of
biodistribution, Muscle (MEAN) [1, 5]: 0.43 % of injected dose per gram of
biodistribution, Ovary (MEAN) [1, 5]: 1.64 % of injected dose per gram of
biodistribution, Pancreas (MEAN) [1, 5]: 1.00 % of injected dose per gram of
biodistribution, Salivary gland (MEAN) [1, 5]: 1.29 % of injected dose per gram of
biodistribution, Spleen (MEAN) [1, 5]: 5.32 % of injected dose per gram of
biodistribution, Uterus (MEAN) [1, 5]: 1.00 % of injected dose per gram of
biodistribution, Adrenal gland (MEAN) [1, 6]: 2.60 % of injected dose per gram of
biodistribution, Brain (MEAN) [1, 6]: 0.22 % of injected dose per gram of
biodistribution, Fat (MEAN) [1, 6]: 1.64 % of injected dose per gram of
biodistribution, Heart (MEAN) [1, 6]: 0.82 % of injected dose per gram of
biodistribution, Intestine (MEAN) [1, 6]: 0.81 % of injected dose per gram of
biodistribution, Kidney (MEAN) [1, 6]: 1.02 % of injected dose per gram of
biodistribution, Liver (MEAN) [1, 6]: 3.29 % of injected dose per gram of
biodistribution, Lung (MEAN) [1, 6]: 29.91 % of injected dose per gram of
biodistribution, Muscle (MEAN) [1, 6]: 0.79 % of injected dose per gram of
biodistribution, Ovary (MEAN) [1, 6]: 1.40 % of injected dose per gram of
biodistribution, Pancreas (MEAN) [1, 6]: 0.95 % of injected dose per gram of
biodistribution, Salivary gland (MEAN) [1, 6]: 0.86 % of injected dose per gram of
biodistribution, Spleen (MEAN) [1, 6]: 2.27 % of injected dose per gram of
biodistribution, Uterus (MEAN) [1, 6]: 0.62 % of injected dose per gram of
accumulation of the free radioactive tracers in the lungs ([1]; Tables 2 to 5 (2 to 24 h), free tracers): strong accumulation
biodistribution, Adrenal glands (MEAN) [2, 7]: 10.18 % of injected dose per gram of
biodistribution, Brain (MEAN) [2, 7]: 0.499 % of injected dose per gram of
biodistribution, Fat (MEAN) [2, 7]: 1.15 % of injected dose per gram of
biodistribution, Heart (MEAN) [2, 7]: 8.676 % of injected dose per gram of
biodistribution, Intestine (MEAN) [2, 7]: 1.75 % of injected dose per gram of
biodistribution, Kidney (MEAN) [2, 7]: 4.20 % of injected dose per gram of
biodistribution, Liver (MEAN) [2, 7]: 8.86 % of injected dose per gram of
biodistribution, Lung (MEAN) [2, 7]: 3.92 % of injected dose per gram of
biodistribution, Muscle (MEAN) [2, 7]: 0.744 % of injected dose per gram of
biodistribution, Ovary (MEAN) [2, 7]: 4.59 % of injected dose per gram of
biodistribution, Pancreas (MEAN) [2, 7]: 1.262 % of injected dose per gram of
biodistribution, Salivary glands (MEAN) [2, 7]: 1.057 % of injected dose per gram of
biodistribution, Spleen (MEAN) [2, 7]: 3.58 % of injected dose per gram of
biodistribution, Uterus (MEAN) [2, 7]: 0.93 % of injected dose per gram of
biodistribution, Adrenal glands (MEAN) [2, 8]: 18.50 % of injected dose per gram of
biodistribution, Brain (MEAN) [2, 8]: 0.29 % of injected dose per gram of
biodistribution, Fat (MEAN) [2, 8]: 3.85 % of injected dose per gram of
biodistribution, Heart (MEAN) [2, 8]: 4.41 % of injected dose per gram of
biodistribution, Intestine (MEAN) [2, 8]: 2.33 % of injected dose per gram of
biodistribution, Kidneys (MEAN) [2, 8]: 3.91 % of injected dose per gram of
biodistribution, Liver (MEAN) [2, 8]: 19.41 % of injected dose per gram of
